From article PMC5118987 (Antimicrobial Agents and Chemotherapy, 2016)
Like-named read-outs stand apart in the source and are kept apart here.

Columns and labels:
HIV-1 IIIb [1] = assay: Antiviral assay in MT-2 cells; format: cell-based
Description: (§1) For the antiviral assay utilizing MT-2 and MT-4 cells, 50 μl of a 2× test concentration of 5-fold serially diluted compound in culture medium with 10% FBS was added to each well of a 96-well plate (9 concentrations) in triplicate. MT-2 and MT-4 cells were infected with HIV-1 IIIb at a multiplicity of infection (MOI) of 0.01 for 3 h. Fifty microliters of infected cell suspension in culture medium with 10% FBS (∼1.5 × 10^4 cells) then was added to each well containing 50 μl of diluted compound. The plates were then incubated at 37°C for 5 days. After 5 days of incubation, 100 μl of CellTiter-Glo reagent (Promega Biosciences, Inc., Madison, WI) was added to each well containing MT-2 or MT-4 cells. Cell lysis was carried out by incubation at room temperature for 10 min and chemiluminescence was read. For compound cytotoxicity assessment, the protocol was identical except that uninfected cells were used and compounds were serially diluted 3-fold.

HIV-1 IIIb [2] = assay: Antiviral assay in MT-4 cells; format: cell-based; conditions: Human immunodeficiency virus 1, MT4, 120 h, 5 days
Description: as §1

[3] = Cytotoxicity assay in MT-4 cells; format: cell-based; conditions: human, uninfected MT-4 cells
Description: as §1

[4] = system: INSTI-resistant HIV-1 mutants (HXB2); assay: microbe, parasite or virus in culture; format: cell-based
[5] = system: inhibitor-selected HIV-1 IIIb passages; assay: Phenotypic profile of selected HIV-1 passages; format: cell-based; conditions: for EC50: Human immunodeficiency virus 1, IIIB
Influenza A/PC/1/73 = assay: microbe, parasite or virus in culture; format: cell-based; conditions: NHBE
Influenza B/LEE/40 = assay: microbe, parasite or virus in culture; format: cell-based; conditions: NHBE
RSV strain A2 = assay: microbe, parasite or virus in culture; format: cell-based, respiratory syncytial virus; conditions: human respiratory syncytial virus, HEp-2
[6] = system: NRTI-, NNRTI- and PI-Resistant HIV-1 Mutants; assay: Antiviral activity against NRTI-, NNRTI- and PI-resistant HIV-1 mutants; format: cell-based; conditions: Human immunodeficiency virus 1; WT, Table S7
in vitro = conditions: human, CC50 in Primary Human Hepatocytes
[7] = Cytotoxicity in AD38 cells; conditions: human
HCV 1b Replicon = assay: Anti-HCV activity, HCV 1b replicon; conditions: Hepatitis C virus, Huh-7
HCV 2a Replicon = assay: Anti-HCV activity, HCV 2a replicon; conditions: Hepatitis C virus, Huh-7
HIV-1 IIIb [8] = assay: microbe, parasite or virus in culture; conditions: Human immunodeficiency virus 1, IIIB, MT4
Description: Each compound series was prepared several times independently in quadruplicate to capture the variations in Hill slope associated with preparation of compound serial dilutions. The assay was performed in a 384-well format. MT-4 cells were infected in bulk at the same MOI as that described above, and the plates were developed with CellTiter-Glo reagent 5 days postinfection.

HBV Production = assay: microbe, parasite or virus in culture; conditions: Hepatitis B virus
HIV-1 IIIb [9] = assay: HIV breakthrough selection in MT-2 cells; conditions: MT-2, HIV-1 IIIb; FTC 4× EC95, EVG 5× EC95, BIC and DTG 2.5× and 5× EC95; up to day 32
HIV-1 BaL [10] = conditions: primary CD4+ T-cells, 35 days, drug at tissue culture equivalent clinical Cmin (FTC 160 × EC50)
HIV-1 BaL [11] = assay: Antiviral assay in primary CD4+ T lymphocytes (p24 ELISA); conditions: Human immunodeficiency virus 1, BAL
Description: (§2) Freshly isolated human peripheral blood mononuclear cells (PBMCs) were obtained from healthy volunteers (supplied by AllCells, Inc., Alameda, CA). Blood donors were negative for HIV-1, hepatitis B, and hepatitis C viral infections. CD4^+ T lymphocytes were isolated by negative selection using a magnetically labeled antibody cocktail ([sequence] Technologies Inc., Vancouver, Canada) and cultured in RPMI cell culture media (Life Technologies, Grand Island, NY) supplemented with 10% FBS. CD4^+ T cells were activated for 48 h at 37°C by addition of 1 μg/ml phytohemagglutinin (PHA; Sigma, St. Louis, MO) and 5 ng/ml interleukin-2 (IL-2; Roche Diagnostics, Indianapolis, IN).
(§3) A 3-fold serial dilution of test compounds in RPMI medium was added to triplicate wells and incubated at 37°C for 5 days. Human monocytes were seeded on 96-well plates at a density of 3 × 10^5 cells per well, differentiated into adherent macrophages, and then infected with HIV-1 BaL virus in 50 μl RPMI for 3 h at 37°C. […] The supernatants derived from the CD4^+ T-cell and macrophage cultures were harvested 6 and 12 days postinfection, respectively, and the amount of HIV present was quantified by p24 enzyme-linked immunosorbent assay (ELISA) (PerkinElmer, Waltham, MA).

HIV-1 BaL [12] = assay: Antiviral assay in monocyte-derived macrophages (p24 ELISA); conditions: Human immunodeficiency virus 1, BAL, Macrophage
Description: as §2, §3

HIV-2 CDC 310319 = assay: Antiviral assay against HIV-2 isolate in fresh human PBMCs (RT endpoint); conditions: Human immunodeficiency virus 2, PBMC
[13] = Human immunodeficiency virus 1, HXB2, IN mutant E92Q
[14] = Human immunodeficiency virus 1, HXB2, IN mutant E92Q/N155H
[15] = Human immunodeficiency virus 1, HXB2, IN mutant E138K/Q148K
[16] = Human immunodeficiency virus 1, HXB2, IN mutant G140S/Q148R
[17] = Human immunodeficiency virus 1, HXB2, IN mutant M50I (BIC/DTG selection)
[18] = Human immunodeficiency virus 1, HXB2, IN mutant M50I/R263K (BIC selection)
[19] = Human immunodeficiency virus 1, HXB2, IN mutant M50I/S119R/R263K (DTG selection)
[20] = Human immunodeficiency virus 1, HXB2, IN mutant N155H
[21] = Human immunodeficiency virus 1, HXB2, IN mutant N155H/Q148R
[22] = Human immunodeficiency virus 1, HXB2, IN mutant Q148R
[23] = Human immunodeficiency virus 1, HXB2, IN mutant R263K (BIC/DTG selection), Table 7
[24] = Human immunodeficiency virus 1, HXB2, IN mutant R263K, Table 6
[25] = Human immunodeficiency virus 1, HXB2, IN mutant S119R (DTG selection)
[26] = Human immunodeficiency virus 1, HXB2, IN mutant S119R/R263K (DTG selection)
[27] = Human immunodeficiency virus 1, HXB2, IN mutant S153Y (DTG selection)
[28] = Human immunodeficiency virus 1, HXB2, IN mutant S153Y/R263K (DTG selection)
[29] = Human immunodeficiency virus 1, HXB2, IN mutant Y143R
[30] = Human immunodeficiency virus 1, HXB2, WT (HXB2), Table 6, read-out: EC50
[31] = Human immunodeficiency virus 1, HXB2, WT (HXB2), Table 7, read-out: EC50
[32] = 480 h, selected virus EVG P2 (day 20, 7.2 nM)
[33] = selected virus BIC P3 (day 47, 6 nM)
[34] = selected virus BIC P5 (day 71, 12 nM)
[35] = selected virus BIC P6 (day 86, 24 nM)
[36] = selected virus BIC P8 (day 156, 96 nM)
[37] = selected virus BIC P9 (day 181, 192 nM)
[38] = selected virus BIC P10 (day 234, 384 nM)
[39] = selected virus DTG P3Lo (day 59, 6.4 nM)
[40] = selected virus DTG P4 (day 87, 9.6 nM)
[41] = selected virus DTG P5 (day 97, 14.4 nM)
[42] = selected virus DTG P7 (day 139, 32.4 nM)
[43] = selected virus DTG P9 (day 174, 72.9 nM)
[44] = selected virus DTG P10 (day 202, 109.4 nM)
[45] = selected virus EVG P4 (day 41, 28.8 nM)
[46] = selected virus EVG P6 (day 56, 115 nM)
[47] = selected virus EVG P7 (day 67, 230 nM)
[48] = selected virus EVG P9 (day 94, 922 nM)
[49] = selected virus EVG P10 (day 119, 1843 nM)

## O=C(NCc1c(F)cc(F)cc1F)c1cn2c(c(O)c1=O)C(=O)N1[C@H]3CC[C@H](C3)O[C@@H]1C2 [BIC, Bictegravir]
HIV-1 IIIb [1]; Human immunodeficiency virus 1, IIIB, MT2, T-cell lines and primary human T lymphocytes, read-out: 50% effective concentrations
  EC50: 1.5 to 2.4 nM
HIV-1 IIIb [1]; Human immunodeficiency virus 1, MT2, 120 h, MT-2 cells, HIV-1 IIIb, 5 days, read-out: EC50
  EC50: 1.5 ± 0.2 nM
HIV-1 IIIb [2]
  EC50: 2.4 ± 0.4 nM
[3]
  CC50 at 5 days: 3660 nM
[4]; [13]
  EC50: 2 ± 0.8 nM
[4]; [14]
  EC50: 2 ± 0.2 nM
[4]; [15]
  EC50: 13.7 ± 1.2 nM
[4]; [16]
  EC50: 3.1 ± 0.8 nM
[4]; [17]
  EC50: 1.9 ± 0.3 nM
[4]; [18]
  EC50: 4.2 ± 0.9 nM
[4]; [19]
  EC50: 6.4 ± 1.6 nM
[4]; [20]
  EC50: 1.6 ± 0.4 nM
[4]; [21]
  EC50: 7.1 ± 4.3 nM
[4]; [22]
  EC50: 1 ± 0.3 nM
[4]; [23]
  EC50: 3.2 ± 0.7 nM
[4]; [24]
  EC50: 2.9 ± 0.7 nM
[4]; [25]
  EC50: 2.7 ± 0.7 nM
[4]; [26]
  EC50: 4.2 ± 1.3 nM
[4]; [27]
  EC50: 3.9 ± 0.7 nM
[4]; [28]
  EC50: 8.3 ± 1.4 nM
[4]; [29]
  EC50: 1.8 ± 0.5 nM
[4]; [30]
  EC50: 1.6 ± 0.4 nM
[4]; [31]
  EC50: 1.5 ± 0.3 nM
[4]; {}
  cross-resistance to single-mutant HIV-1 variants: 1-2 fold
[5]; [32]
  EC50: 5.8 nM
[5]; HIV-1-IIIb (unselected)
  EC50: 2.2 nM
[5]; [33]
  EC50: 3.8 nM
[5]; [34]
  EC50: 5.8 nM
[5]; [35]
  EC50: 7.8 nM
[5]; [36]
  EC50: 11.2 nM
[5]; [37]
  EC50: 17.5 nM
[5]; [38]
  EC50: 13.5 nM
[5]; [39]
  EC50: 2.9 nM
[5]; [40]
  EC50: 7.8 nM
[5]; [41]
  EC50: 10.6 nM
[5]; [42]
  EC50: 21.8 nM
[5]; [43]
  EC50: 23.8 nM
[5]; [44]
  EC50: 30 nM
[5]; [45]
  EC50: 6.5 nM
[5]; [46]
  EC50: 6.8 nM
[5]; [47]
  EC50: 8.9 nM
[5]; [48]
  EC50: 6.8 nM
[5]; [49]
  EC50: 2.9 nM
Influenza A/PC/1/73
  EC50: 53500 nM
Influenza B/LEE/40
  EC50: 37200 nM
RSV strain A2
  EC50: > 50000 nM
[6]
  EC50: 1.7 ± 0.5 nM
In vitro; Donor 1
  CC50: > 100000 nM
In vitro; Donor 2
  CC50: > 100000 nM
[7]
  CC50 at 5 days: > 50000 nM
HCV 1b Replicon
  EC50: > 44000 nM
HCV 2a Replicon
  EC50: > 44000 nM
HIV-1 IIIb [8]
  EC50: 1.9 ± 0.6 nM
HBV Production
  EC50: > 50000 nM
HIV-1 IIIb [9]
  day postinfection of HIV-1 breakthrough: no virus breakthrough was observed
HIV-1 BaL [10]
  Frequency of Viral Breakthrough with RAMs: 0%
  p24+ Wells: 0/24
HIV-1 BaL [11]
  EC50: 1.5 ± 0.3 nM
HIV-1 BaL [12]
  EC50: 6.6 ± 4.1 nM
HIV-2 CDC 310319
  EC50: 1.7 ± 1 nM

## Cc1nnc(C(=O)NC(C)(C)c2nc(C(=O)NCc3ccc(F)cc3)c(O)c(=O)n2C)o1 [RAL, raltegravir]
[4]; [13]
  EC50: 38 ± 9 nM
[4]; [14]
  EC50: 624 ± 213 nM
[4]; [15]
  EC50: 1530 nM
[4]; [16]
  EC50: 2460 nM
[4]; [17]
  EC50: 7.4 ± 1.7 nM
[4]; [18]
  EC50: 7.7 ± 2.1 nM
[4]; [19]
  EC50: 19 ± 7 nM
[4]; [20]
  EC50: 188 ± 37 nM
[4]; [21]
  EC50: 2180 nM
[4]; [22]
  EC50: 427 ± 52 nM
[4]; [23]
  EC50: 7.7 ± 1.2 nM
[4]; [24]
  EC50: 10.4 ± 1.4 nM
[4]; [25]
  EC50: 15 ± 5 nM
[4]; [26]
  EC50: 12 ± 2 nM
[4]; [27]
  EC50: 15 ± 4 nM
[4]; [28]
  EC50: 22 ± 2 nM
[4]; [29]
  EC50: 418 ± 151 nM
[4]; [30]
  EC50: 9.4 ± 1.4 nM
[4]; [31]
  EC50: 7.1 ± 1.1 nM
[4]; all BIC-selected variants
  cross-resistance of BIC-selected variants: < 8 fold
[5]; HIV-1-IIIb (reference)
  Fold-Resistance Relative to HIV-1 IIIb: 1 fold
[5]; [32]
  EC50: 25.9 nM
[5]; HIV-1-IIIb (unselected)
  EC50: 8.8 nM
[5]; [33]
  EC50: 18.1 nM
[5]; [34]
  EC50: 18.3 nM
[5]; [35]
  EC50: 24.4 nM
[5]; [36]
  EC50: 28.8 nM
[5]; [37]
  EC50: 41.7 nM
[5]; [38]
  EC50: 29.3 nM
[5]; [39]
  EC50: 11.8 nM
[5]; [40]
  EC50: 23.2 nM
[5]; [41]
  EC50: 28 nM
[5]; [42]
  EC50: 39.7 nM
[5]; [43]
  EC50: 43 nM
[5]; [44]
  EC50: 56.9 nM
[5]; [45]
  EC50: 26.9 nM
[5]; [46]
  EC50: 19.9 nM
[5]; [47]
  EC50: 28.7 nM
[5]; [48]
  EC50: 44.9 nM
[5]; [49]
  EC50: 17 nM
[5]; selected virus BIC P3
  Fold-Resistance Relative to HIV-1 IIIb: 2 fold
[5]; selected virus BIC P5
  Fold-Resistance Relative to HIV-1 IIIb: 2.1 fold
[5]; selected virus BIC P6
  Fold-Resistance Relative to HIV-1 IIIb: 2.8 fold
[5]; selected virus BIC P8
  Fold-Resistance Relative to HIV-1 IIIb: 3.3 fold
[5]; selected virus BIC P9
  Fold-Resistance Relative to HIV-1 IIIb: 4.7 fold
[5]; selected virus BIC P10
  Fold-Resistance Relative to HIV-1 IIIb: 3.3 fold
[5]; selected virus DTG P3Lo
  Fold-Resistance Relative to HIV-1 IIIb: 1.3 fold
[5]; selected virus DTG P4
  Fold-Resistance Relative to HIV-1 IIIb: 2.6 fold
[5]; selected virus DTG P5
  Fold-Resistance Relative to HIV-1 IIIb: 3.2 fold
[5]; selected virus DTG P7
  Fold-Resistance Relative to HIV-1 IIIb: 4.5 fold
[5]; selected virus DTG P9
  Fold-Resistance Relative to HIV-1 IIIb: 4.9 fold
[5]; selected virus DTG P10
  Fold-Resistance Relative to HIV-1 IIIb: 6.4 fold
[5]; selected virus EVG P2
  Fold-Resistance Relative to HIV-1 IIIb: 2.9 fold
[5]; selected virus EVG P4
  Fold-Resistance Relative to HIV-1 IIIb: 3.0 fold
[5]; selected virus EVG P6
  Fold-Resistance Relative to HIV-1 IIIb: 2.3 fold
[5]; selected virus EVG P7
  Fold-Resistance Relative to HIV-1 IIIb: 3.3 fold
[5]; selected virus EVG P9
  Fold-Resistance Relative to HIV-1 IIIb: 5.1 fold
[5]; selected virus EVG P10
  Fold-Resistance Relative to HIV-1 IIIb: 1.9 fold
HIV-1 BaL [10]
  Frequency of Viral Breakthrough with RAMs: 58%
  p24+ Wells: 12/12
